Earlier results, collected in US12064440B2, “Ophthalmic gel compositions of bimatoprost and timolol and associated methods” (Somerset Therapeutics, LLC, priority 2022, dated 2024).

Conditions: under certain conditions

active pharmaceutical ingredient (API) stability | SMILES
degradation | CC(C)OC(=O)CCC/C=C\C[C@@H]1[C@@H](CC[C@@H](O)CCc2ccccc2)[C@H](O)C[C@@H]1O [latanoprost]
remain stable | CCNC(=O)CCC/C=C\C[C@@H]1[C@@H](/C=C/[C@@H](O)CCc2ccccc2)[C@H](O)C[C@@H]1O [bimatoprost, (Z)-7-[(1R, 2R, 3R, 5S)-3,5-Dihydroxy-2-[(1E, 3S)-3-hydroxy-5-phenyl-1-pentenyl]cyclopentyl]-5-N-ethylheptenamid]
degradation | CC(C)OC(=O)CCC/C=C\C[C@@H]1[C@@H](/C=C/[C@@H](O)COc2cccc(C(F)(F)F)c2)[C@H](O)C[C@@H]1O [travoprost]
